Data: patent US5496854A, “Metallocenes as anti-tumor drugs” (Technion Research & Development Foundation Ltd., priority 1992, dated 1996)
pIC50: −log10 of the molar value. Where two headings read alike, the source gives them in different places.

Tests used:
[1] = tested on: Capan 1 Pancreas Carcinoma; assay: Cytotoxicity (growth inhibition), Capan 1
Excerpt: (§1) The value of the ratio Ti/Pt represents the relative activity of TPE as compared with that of cis-platinum.
(§2) The excipient can serve as an agent for promoting absorption of the medicament by the body or as formulation auxiliary, sweetener, flavouring agent, colourant or preservative. […] The novel titanocene derivatives, according to the present invention, can be prepared from common chemical reagents using standard equipment. It should be realized, that the Examples for their preparations presented hereinafter are only for illustration and many other routes may be conceived for their syntheses.

HT-29 Colon Carcinoma = assay: Cytotoxicity (growth inhibition), HT-29
Excerpt: as §1, §2

H-322 Lung Carcinoma = assay: Cytotoxicity (growth inhibition), H-322
Excerpt: as §1, §2

MCF-7 Breast Cancer = assay: Cytotoxicity (growth inhibition), MCF-7
Excerpt: as §1, §2

Molt-4 T-cell Leukemia = assay: Cytotoxicity (growth inhibition), Molt-4; details: for cytotoxicity (log.): molt-4 cells
Excerpt: as §1, §2

[2] = tested on: Ovcar-3 Ovarian Carcinoma; assay: Cytotoxicity (growth inhibition), Ovcar-3
Excerpt: as §1, §2

[3] = tested on: CHO Chinese Hamstead Ovary; assay: Cytotoxicity (growth inhibition), CHO
Excerpt: as §1, §2

[4] = tested on: HMEC Normal Human Mammary; assay: Cytotoxicity (growth inhibition), HMEC
Excerpt: as §1, §2

NHDF Normal Human Skin = assay: Cytotoxicity (growth inhibition), NHDF
Excerpt: as §1, §2

[5] = tested on: NHEK Normal Keratino Epithelial; assay: Cytotoxicity (growth inhibition), NHEK
Excerpt: as §1, §2

SK-Mel-28 Melanoma = assay: Cytotoxicity (growth inhibition), SK-Mel-28
Excerpt: as §1, §2

UCLA-P3 Lung Carcinoma = assay: Cytotoxicity (growth inhibition), UCLA-P3
Excerpt: as §1, §2

HL-60 B-cell Leukemia = assay: Cytotoxicity (growth inhibition), HL-60
Excerpt: as §1, §2

P-388 Mouse Leukemia = assay: Cytotoxicity (growth inhibition), P-388
Excerpt: as §1, §2

tumor = details: prior art; cited from earlier work

## C[N+](C)(C)CCOC(=O)c1ccc([O-])cc1.C[N+](C)(C)CCOC(=O)c1ccc([O-])cc1.[Ti+4].c1cc[cH-]c1.c1cc[cH-]c1 [TCE, Bis[4-(2-trimethylammono)ethoxycarbonylphenolato]bis(n^5-cyclopentadienyl)titanium(IV)]
[1]; capan 1 cells
  cytotoxicity (log.): -4.00 log. (M)
HT-29 Colon Carcinoma; ht-29 cells
  cytotoxicity (log.): -4.00 log. (M)
H-322 Lung Carcinoma; h-322 cells
  cytotoxicity (log.): -4.00 log. (M)
MCF-7 Breast Cancer; mcf-7 cells
  cytotoxicity (log.): -4.30 log. (M)
Molt-4 T-cell Leukemia
  cytotoxicity (log.): -4.00 log. (M)
[2]; ovcar-3 cells
  cytotoxicity (log.): -4.00 log. (M)

## CCOC(=O)c1ccc([O-])cc1.CCOC(=O)c1ccc([O-])cc1.[Ti+4].c1cc[cH-]c1.c1cc[cH-]c1 [TEE-1, Bis(4-ethoxycarbonylphenolato)bis(n^5-cyclopentadienyl)titanium(IV)]
[3]; cho cells
  cytotoxicity (log.): -4.60 log. (M)
[4]; human, hmec cells
  cytotoxicity (log.): -6.11 log. (M)
NHDF Normal Human Skin; human, nhdf cells
  cytotoxicity (log.): -4.89 log. (M)
[5]; human, nhek cells
  cytotoxicity (log.): -5.80 log. (M)
[1]; capan 1 cells
  cytotoxicity (log.): -5.51 log. (M)
HT-29 Colon Carcinoma; ht-29 cells
  cytotoxicity (log.): -5.20 log. (M)
SK-Mel-28 Melanoma; sk-mel-28 cells
  cytotoxicity (log.): -5.51 log. (M)
H-322 Lung Carcinoma; h-322 cells
  cytotoxicity (log.): -5.80 log. (M)
UCLA-P3 Lung Carcinoma; ucla-p3 cells
  cytotoxicity (log.): -5.20 log. (M)
MCF-7 Breast Cancer; mcf-7 cells
  cytotoxicity (log.): -5.80 log. (M)
HL-60 B-cell Leukemia; hl-60 cells
  cytotoxicity (log.): -5.51 log. (M)
Molt-4 T-cell Leukemia
  cytotoxicity (log.): -7.00 log. (M)
[2]; ovcar-3 cells
  cytotoxicity (log.): -5.20 log. (M)
P-388 Mouse Leukemia; p-388 cells
  cytotoxicity (log.): -4.89 log. (M)

## COCCOCCOC(=O)c1ccc([O-])cc1.COCCOCCOC(=O)c1ccc([O-])cc1.[Ti+4].c1cc[cH-]c1.c1cc[cH-]c1 [TEG, Bis[4-(2-(2-methoxyethoxy)ethoxy]carbonylphenolato]bis(n^5-cyclopentadienyl)titanium(IV)]
Molt-4 T-cell Leukemia
  cytotoxicity (log.): -4.00 log. (M)
[2]; ovcar-3 cells
  cytotoxicity (log.): -4.00 log. (M)

## COCCOC(=O)c1ccc([O-])cc1.COCCOC(=O)c1ccc([O-])cc1.[Ti+4].c1cc[cH-]c1.c1cc[cH-]c1 [TMEM, Bis[4-(2-methoxy)ethoxycarbonylphenolato]bis(n^5-cyclopentadienyl)titanium(IV)]
[3]; cho cells
  cytotoxicity (log.): -4.30 log. (M)
[4]; human, hmec cells
  cytotoxicity (log.): -4.60 log. (M)
NHDF Normal Human Skin; human, nhdf cells
  cytotoxicity (log.): -4.30 log. (M)
[1]; capan 1 cells
  cytotoxicity (log.): -4.89 log. (M)
HT-29 Colon Carcinoma; ht-29 cells
  cytotoxicity (log.): -4.60 log. (M)
SK-Mel-28 Melanoma; sk-mel-28 cells
  cytotoxicity (log.): -4.60 log. (M)
H-322 Lung Carcinoma; h-322 cells
  cytotoxicity (log.): -4.89 log. (M)
MCF-7 Breast Cancer; mcf-7 cells
  cytotoxicity (log.): -4.89 log. (M)
HL-60 B-cell Leukemia; hl-60 cells
  cytotoxicity (log.): -4.60 log. (M)
Molt-4 T-cell Leukemia
  cytotoxicity (log.): -7.00 log. (M)
[2]; ovcar-3 cells
  cytotoxicity (log.): -4.60 log. (M)

## COC(=O)c1ccc([O-])cc1.COC(=O)c1ccc([O-])cc1.[Ti+4].c1cc[cH-]c1.c1cc[cH-]c1 [TPE, Bis(4-methoxycarbonylphenolato)bis(n^5-cyclopentadienyl)titanium(IV)]
[3]; CHO, relative activity of TPE as compared with cis-platinum
  ratio Ti/Pt: 2
[3]; cho cells
  pIC50: 4.89
  cytotoxicity (log.): -4.80 log. (M)
[4]; HMEC, relative activity of TPE as compared with cis-platinum
  ratio Ti/Pt: 20
[4]; human, hmec cells
  CC50: 3.1 µM
  cytotoxicity (log.): -5.70 log. (M)
NHDF Normal Human Skin; NHDF, relative activity of TPE as compared with cis-platinum
  ratio Ti/Pt: 20
NHDF Normal Human Skin; human, nhdf cells
  CC50: 1.6 µM
  cytotoxicity (log.): -5.41 log. (M)
[5]; NHEK, relative activity of TPE as compared with cis-platinum
  ratio Ti/Pt: 200
[5]; human, nhek cells
  CC50: 3.1 µM
  cytotoxicity (log.): -5.51 log. (M)
[1]; Capan 1, relative activity of TPE as compared with cis-platinum
  ratio Ti/Pt: 10
[1]; capan 1 cells
  pIC50: 6.41
  cytotoxicity (log.): -6.41 log. (M)
HT-29 Colon Carcinoma; HT-29, relative activity of TPE as compared with cis-platinum
  ratio Ti/Pt: 200
HT-29 Colon Carcinoma; ht-29 cells
  pIC50: 5.41
  cytotoxicity (log.): -5.41 log. (M)
SK-Mel-28 Melanoma; SK-Mel-28, relative activity of TPE as compared with cis-platinum
  ratio Ti/Pt: 10
SK-Mel-28 Melanoma; sk-mel-28 cells
  pIC50: 5.80
  cytotoxicity (log.): -5.41 log. (M)
H-322 Lung Carcinoma; H-322, relative activity of TPE as compared with cis-platinum
  ratio Ti/Pt: 100
H-322 Lung Carcinoma; h-322 cells
  pIC50: 6.20
  cytotoxicity (log.): -6.20 log. (M)
UCLA-P3 Lung Carcinoma; UCLA-P3, relative activity of TPE as compared with cis-platinum
  ratio Ti/Pt: 20
UCLA-P3 Lung Carcinoma; ucla-p3 cells
  pIC50: 5.51
  cytotoxicity (log.): -5.51 log. (M)
MCF-7 Breast Cancer; MCF-7, relative activity of TPE as compared with cis-platinum
  ratio Ti/Pt: 100
MCF-7 Breast Cancer; mcf-7 cells
  pIC50: 5.70
  cytotoxicity (log.): -5.70 log. (M)
HL-60 B-cell Leukemia; HL-60, relative activity of TPE as compared with cis-platinum
  ratio Ti/Pt: 2
HL-60 B-cell Leukemia; hl-60 cells
  pIC50: 5.51
  cytotoxicity (log.): -5.70 log. (M)
Molt-4 T-cell Leukemia; Molt-4, relative activity of TPE as compared with cis-platinum
  ratio Ti/Pt: 10
Molt-4 T-cell Leukemia
  cytotoxicity (log.): -6.00 log. (M)
[2]; Ovcar-3, relative activity of TPE as compared with cis-platinum
  ratio Ti/Pt: 10
[2]; ovcar-3 cells
  pIC50: 5.20
  cytotoxicity (log.): -5.20 log. (M)
P-388 Mouse Leukemia; p-388 cells
  pIC50: 5.41
  cytotoxicity (log.): -5.41 log. (M)

## titanocene dichloride [TDC, reference compound]
[3]; read-out: IC50 (cytotoxic data), CHO
  pIC50: 3.00
[4]; read-out: IC50 (cytotoxic data), HMEC
  CC50: 130 µM
NHDF Normal Human Skin; read-out: IC50 (cytotoxic data), NHDF
  CC50: 1000 µM
[5]; read-out: IC50 (cytotoxic data), NHEK
  CC50: 1000 µM
[1]; read-out: IC50 (cytotoxic data), Capan 1
  pIC50: 3.30
HT-29 Colon Carcinoma; read-out: IC50 (cytotoxic data), HT-29
  pIC50: 3.30
SK-Mel-28 Melanoma; read-out: IC50 (cytotoxic data), SK-Mel-28
  pIC50: 3.00
H-322 Lung Carcinoma; read-out: IC50 (cytotoxic data), H-322
  pIC50: 3.00
UCLA-P3 Lung Carcinoma; read-out: IC50 (cytotoxic data), UCLA-P3
  pIC50: 3.00
MCF-7 Breast Cancer; read-out: IC50 (cytotoxic data), MCF-7
  pIC50: 3.00
HL-60 B-cell Leukemia; read-out: IC50 (cytotoxic data), HL-60
  pIC50: 3.00
Molt-4 T-cell Leukemia; read-out: IC50 (cytotoxic data), Molt-4
  pIC50: 3.00
[2]; read-out: IC50 (cytotoxic data), Ovcar-3
  pIC50: 3.00
P-388 Mouse Leukemia; read-out: IC50 (cytotoxic data), P-388
  pIC50: 3.30
tumor
  anti-tumor activity: very reactive anti-tumor reagent
